Literature values as cited in patent publication US6929797B2, “Targeted therapeutic delivery of vitamin D compounds” (Bone Care International, Inc., priority 1997, dated 2005).
Read-outs that look alike come from different tables or passages of the source.

Experiments:
[1] = 0.5 μg/day, postmenopausal women
[2] = not given; remark: listed apart in the source

Row | Structure (SMILES) | effects on bone mass or mineral content (dosage levels below 0.5 μg/day) | intestinal calcium absorption and calcium balance [1] | toxicity (hypercalcemia and hypercalciuria) ([2]; above 0.5 μg/day) | efficacy (bone mass or bone mineral content) (1 μg/day, Japan, population with low calcium intake) | bone mass (Two μg/day, patients exhibiting senile osteoporosis) | patients in whom toxicity occurs ([2]; 1 μg/day) | patients in whom toxicity occurs ([2]; 2 μg/day)
1 | C=C1/C(=C\C=C2/CCC[C@]3(C)[C@@H]([C@H](C)CCCC(C)(C)O)CC[C@@H]23)C[C@@H](O)C[C@@H]1O [1α,25-dihydroxyvitamin D3] | no effects | improved | frequently resulted in toxicity | – | – | – | –
2 | C=C1/C(=C\C=C2/CCC[C@]3(C)[C@@H]([C@H](C)CCCC(C)C)CC[C@@H]23)C[C@@H](O)C[C@@H]1O [1α-hydroxyvitamin D3] | – | – | – | efficacy is found | efficacy in increasing bone mass | approximately 20% | approximately 67%
